# Results published in article PMC5979466, “Allosteric Activation of GDP-Bound Ras Isoforms by Bisphenol Derivative Plasticisers” (International Journal of Molecular Sciences, 2018).
# Where two headings read alike, the source gives them in different places.
# Key:
# K-Ras4B bound to GDP [1] = biological target: T1, K-Ras4B bound to GDP (Homo sapiens, UniProt P01116); assay: NMR titration (1H-15N HSQC chemical shift perturbation) of GDP-bound K-Ras4B; type: binding
# T1 construct: made in house; host or cells: E. coli
# Description: The NMR titration experiments, resonance assignments, and data handling were performed as previously published. Spectra were acquired on Bruker DRX 600 and AVANCE III HD 700 spectrometers, except for ^19F NMR spectra that were recorded on a Bruker DPX 250 spectrometer at 235 MHz. The reference experiment for the competitive titration of ^14N SOS^cat and BPAF to ^15N-enriched GDP-bound K-Ras4B was acquired in the presence of 0.2 mM BPAF in PBS at pH 7.4.
# GDP-bound K-Ras4B = biological target: T2, GDP-bound K-Ras4B (Homo sapiens, UniProt P01116); assay: Shift of Y157 amide NMR resonance towards active GppNHp-bound state; type: binding; conditions: saturated ligand-protein complex
# T2 construct: made in house; host or cells: E. coli
# Description: (§1) The NMR titration experiments, resonance assignments, and data handling were performed as previously published. Spectra were acquired on Bruker DRX 600 and AVANCE III HD 700 spectrometers, except for ^19F NMR spectra that were recorded on a Bruker DPX 250 spectrometer at 235 MHz. The reference experiment for the competitive titration of ^14N SOS^cat and BPAF to ^15N-enriched GDP-bound K-Ras4B was acquired in the presence of 0.2 mM BPAF in PBS at pH 7.4. Upon titration of ^14N SOS^cat to a 0.4 mM sample of GDP-bound ^15N-enriched K-Ras4B, line broadening and/or disappearance of NMR resonances for GDP-loaded K-Ras4B bound to SOS^cat is observed probably due to rotational correlation effects of the approx. 80 kDa protein-protein complex. Line broadening can already be detected in 2D ^1H-^15N HSQC spectra of ^14N SOS^cat:^15N-enriched GDP-bound K-Ras4B at a molar ratio of 1:1, and this effect is more pronounced when extra SOS^cat is added to adjust a molar ratio of 1:2. Addition of an increasing amount of BPAF to the 1:2 ^15N-enriched K-Ras4B/^14N SOS^cat complex (1:2:0.5, 1:2:1, 1:2:4) recovers the backbone amide proton NMR resonances in 2D ^1H-^15N HSQC spectra. The acquired NMR spectrum is similar to the ^15N-enriched GDP-bound K-Ras4B:BPAF ^1H-^15N HSQC spectrum.
# K-Ras4B [2] = biological target: T3, K-Ras4B (Homo sapiens, UniProt P01116); set-up: made in house; host or cells: E. coli (given for K-Ras4B only); method as in PMID 26867649; conditions: cited from earlier work
# Hela cells = assay: MTT cytotoxicity assay; type: cell-based; conditions: Homo sapiens, Hela cells exposed for 72 hrs
# Description: Hela cells were used to determine IC50 values for different bisphenols. Therefore cells (1100 cells/well) were seeded in 96 well plates. 24 h after seeding cells were treated with individual bisphenols or corresponding DMSO in indicated concentrations up to 72 h. Subsequently, 10 μL of a MTT stock solution (5 mg/mL) were added to each well for 4 h. The mixture was removed carefully via pipetting, and the remaining formazan crystals formed were dissolved by 100 μL DMSO/10% SDS/0.01 M acetic acid for 15 min. The absorbance (570 nm and reference 620 nm) was determined using an absorbance reader and blank values were subtracted. Prism 6 (GraphPad Software, La Jolla, CA, USA) was used to calculate IC50 values.
# Rap-1A = biological target: T4, Rap-1A (Homo sapiens, UniProt P62834); assay: NMR titration of Rap-1A; type: binding; conditions: up to a BPAF concentration of 5 mM
# T4 construct: Rap1A comprising residues 1–170 were expressed in E. coli; made in house; host or cells: E. coli
# T4 sequence (P62834 1-170): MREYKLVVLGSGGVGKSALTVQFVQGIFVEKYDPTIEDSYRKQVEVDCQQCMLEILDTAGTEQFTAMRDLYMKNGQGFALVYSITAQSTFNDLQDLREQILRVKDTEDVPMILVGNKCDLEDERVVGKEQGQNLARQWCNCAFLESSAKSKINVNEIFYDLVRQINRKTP
# H-Ras = biological target: T5, H-Ras (Homo sapiens, UniProt P01112); assay: NMR-based titration of H-Ras; type: binding
# T5 construct: made in house; host or cells: E. coli
# Ras = assay: G-LISA Ras activation assay; type: cell-based; conditions: serum-starved HEK293T cells, BPAF 20 µM, 1, 2, 4 h
# Description: (§2) G-LISA Ras activation assay was performed as described before. Briefly, HEK293T cells were seeded in 10-cm dishes followed by overnight incubation and afterwards serum-starved for 16 h. Cells were then treated with individual bisphenols (BPAF [20 µM] and BPNH2 [33 µM]) or DMSO (control, Ctrl) in a time-dependent manner (1, 2, 4 h), subsequently lysed and the protein concentration was determined using Precision RedTM Advanced Protein Assay Reagent. Quantitative analysis of active Ras was performed with a G-LISA Ras activation assay (Cytoskeleton, Inc., Denver CO, USA) using 1 mg/mL of the sample. The signal intensity was determined by measuring absorbance at 490 nm using a microplate spectrophotometer. Additionally, these lysates were subjected to western blot analysis in order to determine the activation of ERK and AKT signalling. To test for statistical significance, a two-tailed Student’s t-test was applied using Prism version 5.0 (GraphPad Software, La Jolla, CA, USA).
# N-Ras (1-170) = biological target: T6, N-Ras (1-170) (Homo sapiens, UniProt P01111); assay: NMR-based titration of N-Ras; type: binding
# T6 construct: For N-Ras (1-170), we also observed a similar pattern of CSPs; made in house
# K-Ras4B [3] = biological target: T3, K-Ras4B; assay: SOScat-catalysed guanine nucleotide exchange assay (mant-GDP fluorescence); type: biochemical; set-up: made in house; host or cells: E. coli (given for K-Ras4B only)
# Description: (§3) The SOS^cat assay was performed as described. Briefly, a solution of 1 µM Ras*mantGDP, 200 µM GDP was mixed with different concentrations of BPNH2 and incubated at 20 °C for 5–10 min. To prevent insolubility of the BPNH2, 5% v/v DMSO was applied. After adding 0.5 µM of SOS^cat, a fluorescence spectrum was recorded with a Perkin Elmer LS50B instrument applying an excitation wavelength of 366 nm and an emission wavelength of 442 nm. The kobs value describing the dissociation rate of the nucleotide is obtained for each BPNH2 concentration from a single exponential fit to the fluorescence time course. The GDI (guanine nucleotide dissociation inhibitor) assay is carried out similar to the SOS^cat assay: Instead of mantGDP, the non-hydrolysable GTP analogue mantGppNHp is used but no SOS^cat is added here. Again, the dissociation of the fluorescent nucleotide from Ras in the presence of various BPNH2 concentrations is detected by the decrease of fluorescence and the time dependence yields the kobs values. A plot of the kobs values versus BPNH2 concentration fitted by a binding isotherm yields the KD value of the BPNH2 complex (Figure 4 and Figure S7).
# ERK = assay: Western blot of ERK phosphorylation (pERK/total ERK); type: cell-based; conditions: serum-starved HEK293T cells, BPAF 20 µM, BPNH2 33 µM
# Description: as §2
# K-Ras4B [4] = biological target: T3, K-Ras4B; assay: GDI (guanine nucleotide dissociation inhibition) assay with mantGppNHp; type: biochemical; set-up: made in house; host or cells: E. coli
# Description: as §3
# Supporting Figure 7. GDI assay carried out in triplicate (black, red, green; upper panel): The GDI (guanine nucleotide dissociation inhibitor) assay is carried out similar to the SOScat assay: Instead of mantGDP, the non-hydrolysable GTP analogue mantGppNHp is used but no SOScat is added here. Again, the dissociation of the fluorescent nucleotide from Ras in the presence of various
# BPNH2 concentrations is detected by the decrease of fluorescence and the time dependence yields the kobs values. A plot of the kobs values versus BPNH2 concentration fitted by a binding isotherm yields the KD value of the BPNH2 complex (please also refer to […]
# MTT cytotoxicity assay (lower four panels): The IC50 values in Hela cells exposed for 72 hrs to BPs were determined as follows: 53.79 […]
# (1 picture or pasted object on this page, not shown here)
# [5] = biological target: T7, GDP-bound K-Ras4B/SOS^cat complex (Homo sapiens, UniProt P01116); assay: Competitive NMR titration of 15N K-Ras4B with 14N SOScat and ligand; type: binding; conditions: BPAF added to 1:2 K-Ras4B/SOScat complex, recovery of resonances
# T7 construct: made in house; host or cells: E. coli (given for K-Ras4B only)
# Description: as §1
# AKT kinase = assay: Western blot of AKT phosphorylation (pAKT/total AKT); type: cell-based; conditions: serum-starved HEK293T cells, BPAF 20 µM, BPNH2 33 µM
# Description: as §2
# [6] = Solubility of the ligands in the NMR study; conditions: NMR study samples
# K-Ras4B bound to GDP [7] = biological target: T1, K-Ras4B bound to GDP; conditions: NMR titration, cited from earlier work
# [8] = NMR titration, GDP-bound 15N-enriched K-Ras4B
compound,measurement,setting,value
"Oc1ccc(C(F)(F)F)cc1 [AFX, 4-(Trifluoromethyl)phenol, reference compound]",Kd,K-Ras4B bound to GDP [1]; [8],> 50000 µM
"CC(C)(c1ccc(O)cc1)c1ccc(O)cc1 [BPA, 2,2-Bis(4-hydroxyphenyl)propane]",shift of Y157 amide resonance relative to the frequency in the active GppNHp-bound state,GDP-bound K-Ras4B,49%
same,interference with GEF (Sos)-mediated nucleotide exchange from GDP to GTP,K-Ras4B [2],can interfere
same,IC50,Hela cells,53.8 µM
"Oc1ccc(C(c2ccc(O)cc2)(C(F)(F)F)C(F)(F)F)cc1 [BPAF, 2,2-Bis(4-hydroxyphenyl)hexafluoropropane]",chemical shift perturbations (CSPs) on titration,Rap-1A,could not be detected
same,Kd,H-Ras,400 ± 20 µM
same,Ras activity (G-LISA),Ras,significant and time-dependent augmentation of Ras activity
same,Kd,N-Ras (1-170),770 ± 20 µM
same,shift of Y157 amide resonance relative to the frequency in the active GppNHp-bound state,GDP-bound K-Ras4B,58%
same,interference with the SOScat mediated nucleotide exchange,K-Ras4B [3],interfere
same,level of ERK phosphorylation / Ras signalling via c-Raf kinase,ERK,increased the level of ERK phosphorylation
same,GDI-effect (inhibition of nucleotide dissociation),K-Ras4B [4],no or only a very small effect
same,antagonism of the interaction between GDP-bound K-Ras4B and SOScat,[5],can antagonise
same,level of phosphorylated AKT kinase (pAKT),AKT kinase,slightly elevated levels of phosphorylated AKT kinase (pAKT) after 2 h
same,Kd,K-Ras4B bound to GDP [1]; [8],350 ± 20 µM
same,Kd,"K-Ras4B bound to GDP [1]; calculated from six binding pocket residues (L6, V9, Y40, L56, T74, G75), Fig. S1",347 ± 5 µM
same,IC50,Hela cells,17.8 µM
"CC(c1ccccc1)(c1ccc(O)cc1)c1ccc(O)cc1 [BPAP, 4,4′-(1-Phenylethylidene)bisphenol]",solubility comment,[6],insoluble
"CCC(C)(c1ccc(O)cc1)c1ccc(O)cc1 [BPB, 2,2-Bis(4-hydroxyphenyl)butane]",Kd,K-Ras4B bound to GDP [1]; [8],3600 µM
"Oc1ccc(C(c2ccccc2)(c2ccccc2)c2ccc(O)cc2)cc1 [BPBP, Bis(4-hydroxyphenyl)diphenylmethane]",solubility comment,[6],insoluble
"CC(c1ccc(O)cc1)c1ccc(O)cc1 [BPE, 1,1-Bis(4-hydroxyphenyl)ethane]",Kd,K-Ras4B bound to GDP [1]; [8],6500 µM
"Oc1ccc(Cc2ccc(O)cc2)cc1 [BPF, 4,4′-Methylenediphenol]",Kd,K-Ras4B bound to GDP [1]; [8],14000 µM
"Oc1ccc(C2(c3ccc(O)cc3)c3ccccc3-c3ccccc32)cc1 [BPFL, 4,4′-(9-Fluorenylidene)diphenol]",solubility comment,[6],insoluble
"Nc1cc(C(c2ccc(O)c(N)c2)(C(F)(F)F)C(F)(F)F)ccc1O [BPNH2, 2,2-Bis(3-amino-4-hydroxyphenyl)hexafluoropropane]",shift of Y157 amide resonance relative to the frequency in the active GppNHp-bound state,GDP-bound K-Ras4B,approx. 64%
same,interference with the SOScat mediated nucleotide exchange,K-Ras4B [3],interfere
same,Kd,"K-Ras4B [3]; kobs of mGDP dissociation versus ligand concentration, 0.5 µM SOScat, 20 °C, 5% DMSO, read-out: KD from SOScat-assay",200 ± 100 µM
same,level of ERK phosphorylation / Ras signalling via c-Raf kinase,ERK,failed to activate
same,GDI-effect (inhibition of nucleotide dissociation),K-Ras4B [4],significant GDI-effect
same,Kd,"K-Ras4B [4]; mantGppNHp, no SOScat, triplicate, read-out: KD from GDI-assay",340 ± 20 µM
same,level of phosphorylated AKT kinase (pAKT),AKT kinase,clearly be detected already after 1 h
same,Kd,K-Ras4B bound to GDP [1]; [8],400 µM
same,IC50,Hela cells,33 µM
"O=S(=O)(c1ccc(O)cc1)c1ccc(O)cc1 [BPS, 4,4′-Sulfonyldiphenol]",Kd,K-Ras4B bound to GDP [7]; listed as S,6000 ± 700 µM
same,Kd,K-Ras4B bound to GDP [7],5800 µM
same,shift of Y157 amide resonance relative to the frequency in the active GppNHp-bound state,GDP-bound K-Ras4B,20%
same,interference with GEF (Sos)-mediated nucleotide exchange from GDP to GTP,K-Ras4B [2],cannot interfere
same,IC50,Hela cells,119 µM
